Test results taken from patent US20240216369A1, “THE USE OF A SPLICING MODULATOR FOR A TREATMENT SLOWING PROGRESSION OF HUNTINGTON'S DISEASE” (Novartis AG, priority 2019, published 2024).

Key:
mutant HTT protein = assay: Repeat dose timecourse study in BacHD mice: HTT protein (Western blot); format: in vivo
Experimental: At 72 h 168 h, 240 h and 336 h (branaplam 24 mg/kg) after the last treatment (vehicle or 24 mg/kg branaplam for 1 week or 3 weeks), blood, CSF, and tissue samples were obtained for PK and PD analysis. To collect CSF, mice were placed in a rodent anesthesia induction chamber where they are exposed to 4-5% isoflurane in 100% oxygen carrier gas. Once an appropriate plane of anesthesia was achieved, they were moved to a nose cone so that maintenance levels of isoflurane (1-3%) could be delivered throughout the procedure. The dorsal aspect of their cervical and occipital region was surgically prepped to visualize the dura mater under a microscope. A glass micropipette attached to a micromanipulator was introduced to the cisterna magna via a puncture through the dura mater at a point where no vasculature was visualized, and CSF was allowed to flow into the micropipette via capillary action. After approximately 15-30 minutes, the micropipette was removed from the cisterna magna, the CSF sample was transferred into Eppendorf tubes, flash frozen in liquid nitrogen, and stored at −80° C.
Following CSF collection, mice were kept under anesthesia with isoflurane. Blood was obtained via submandibular vein bleeds and collected for RNA extraction (PD analysis) using RNAprotect Animal Blood Tubes, and plasma (PK analysis) using K2EDTA coated tubes. Cells were removed from plasma by centrifugation for 10 min at 2000×g at 4° C., and plasma samples were stored at −80° C. Following blood collection, mice were given a lethal dose of ketamine/xylazine ([…] of a 10 mg:1 mg), and perfused with 18 mL of 0.9% cold saline mixed with 2 mL of RNAlater (Ambion) solution for tissue collection. Liver, skeletal muscle, brain striatum, brain cortex, hemibrain and cerebellum samples were flash frozen in liquid nitrogen and stored at −80° C.
Snap-frozen mouse tissue samples were homogenized in RIPA buffer with protease and phosphatase inhibitor (Thermo Scientific) by Precellys at 6000 rpm for 40 sec. Supernatant was obtained by centrifugation for 20 min at 13,000 rpm at 4° C. Total protein concentration was quantified using the BCA protein Assay (Thermo Scientific). Samples were resolved in 3-8% Tris-Acetate protein gel under reducing condition. Proteins were transferred onto PVDF membrane (Millipore) and western blot analysis was performed using […] anti-Huntingtin antibody (Millipore #MAB2166), mouse anti-actin (Sigma, #A5316) and mouse anti-vinculin (Bio-Rad, #MCA465). Protein bands were quantified by Image J.
With a view to characterize the time course of HTT protein lowering and recovery and to better model the PK-PD relationship an extended time-course study was performed. BacHD mice received three weekly, oral doses of 24 mg/kg branaplam for three weeks. […]

tHTT = assay: Mutant and total HTT multiplex HTRF assay in Q48 HTT human embryonic stem cell line: tHTT; format: cell-based; conditions: Q48 HTT hESC, 48 hours
How it was run: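 Q48 HTT hESCs from HD donors were treated with compound for 48 h at 37 °C after 24 h adherence, then lysed. Lysates were read by multiplex HTRF with N-terminal donor, polyQ (MW1) and post-polyQ (MAB2166) antibodies for 4-6 h at RT. Donor/acceptor ratios give relative mHTT and tHTT; pIC50 reported.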

[1] = 24 mg/kg, 3 weeks, time after last dose

CC1(C)CC(Oc2ccc(-c3ccc(-c4cn[nH]c4)cc3O)nn2)CC(C)(C)N1 [Compound 18, 5-(1H-pyrazol-4-yl)-2-(6-((2,2,6,6-tetramethylpiperidin-4-yl)oxy)pyridazin-3-yl)phenol]
maximal HTT protein lowering (relative to vehicle) (mutant HTT protein; 24 mg/kg oral three times weekly for 3 weeks, 72 h after last dose): approximately 45%
mutant HTT protein, 1 week versus 3 weeks of dosing (mutant HTT protein; 24 mg/kg oral, three times weekly): time-dependent lowering trend
return of HTT protein to baseline, cortex (mutant HTT protein; [1]): 72 to 168 h
return of HTT protein to baseline, striatum (mutant HTT protein; [1]): 72 to 336 h
tHTT pIC50 (tHTT): 7.371
